Measurements as given in patent publication EP0197013A1, “Substituted benzimidazoles for the manufacture of a medicament for treatment of intestinal inflammatory diseases” (Aktiebolaget Hässle, priority 1985, dated 1986).

Biological target: T1, colon K^+-ATPase (Oryctolagus cuniculus, UniProt Q9TV52)
T1 construct: Apical brush-border membranes were prepared from rabbit descending colon epithelium; from tissue; host or cells: rabbit descending colon epithelium, apical brush-border membrane fraction (Percoll gradient)
T1 sequence (Q9TV52 whole entry, other chains not shown): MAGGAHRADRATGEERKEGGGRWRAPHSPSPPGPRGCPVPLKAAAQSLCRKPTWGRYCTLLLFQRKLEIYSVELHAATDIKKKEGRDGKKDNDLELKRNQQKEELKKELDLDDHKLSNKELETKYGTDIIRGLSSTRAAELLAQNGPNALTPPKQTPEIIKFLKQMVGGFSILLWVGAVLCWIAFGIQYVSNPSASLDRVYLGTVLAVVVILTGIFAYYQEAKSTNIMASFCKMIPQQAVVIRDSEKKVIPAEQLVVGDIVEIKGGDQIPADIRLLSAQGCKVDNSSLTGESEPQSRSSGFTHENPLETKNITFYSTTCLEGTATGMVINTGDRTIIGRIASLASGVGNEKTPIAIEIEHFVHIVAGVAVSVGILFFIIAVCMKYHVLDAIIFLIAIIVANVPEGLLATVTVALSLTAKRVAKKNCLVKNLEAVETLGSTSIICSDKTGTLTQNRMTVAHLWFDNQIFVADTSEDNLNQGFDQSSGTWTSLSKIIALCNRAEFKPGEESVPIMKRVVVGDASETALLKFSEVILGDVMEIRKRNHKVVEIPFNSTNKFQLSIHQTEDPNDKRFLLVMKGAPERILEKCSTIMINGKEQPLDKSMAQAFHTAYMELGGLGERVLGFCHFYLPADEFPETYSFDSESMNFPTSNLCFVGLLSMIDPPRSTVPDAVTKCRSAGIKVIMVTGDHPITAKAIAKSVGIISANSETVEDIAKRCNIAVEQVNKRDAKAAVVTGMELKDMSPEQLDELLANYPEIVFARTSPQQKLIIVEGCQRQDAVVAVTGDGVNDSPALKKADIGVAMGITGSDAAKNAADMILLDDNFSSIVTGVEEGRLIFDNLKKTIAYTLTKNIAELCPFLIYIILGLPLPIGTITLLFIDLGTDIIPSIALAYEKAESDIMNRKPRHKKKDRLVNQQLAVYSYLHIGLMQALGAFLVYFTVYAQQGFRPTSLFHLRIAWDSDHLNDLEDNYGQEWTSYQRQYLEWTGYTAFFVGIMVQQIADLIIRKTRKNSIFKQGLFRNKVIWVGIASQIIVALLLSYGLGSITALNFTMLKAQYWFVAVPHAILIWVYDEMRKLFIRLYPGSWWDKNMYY
Experiment: Inhibition of colon K+-ATPase by acid decomposed omeprazole (Pi liberated from ATP, apical brush-border membranes of descending colon)
Assay type: biochemical, rabbit
Set-up: activity of the colonic K^+-ATPase enzyme: dose or concentration left out as unconfirmed
Experimental: In order to evaluate the inhibitory effect on colonic K^+-ATPase of the substituted benzimidazoles with the general formula I, we have tested one compound, namely omeprazole on an enzyme preparation from the descending colon of the rabbit (cf. below).
In the case of omeprazole the most efficient way to form the active degradation products is to decompose it in acid solution. Thus, omeprazole was decomposed in acid before it was added to the enzyme.
In order to isolate and characterize the ouabain insensitive potassium- stimulated ATPase from rabbit descending colon the following preparation was made.
Apical brush-border membranes were prepared from rabbit descending colon epithelium, by the method of Gustin M.C., and Goodman D.B.P., J. Biol. Chem. 256, 10651-10656 (1981), with some modifications.
Two albino male rabbits, weighing 2-3 kg, were killed by injection of mebumal into the ear vein. A section of colon, 30-35 cm in length, measured from rectum, was removed, rinsed free of its content with icecold 0.15 M NaCl and everted over a glassrod. The tissue was then divided in two pieces. These everted segments were tied at one end, filled with an icecold buffer containing 30 mM NaCl, 5mM Na3EDTA and 8 mM Hepes/Tris pH 7.6, using a 20 ml syringe without a needle, until they became distended, at which point the other end was tied. The intestines were transferred to a 500 ml centrifuge tube containing the same cold pH 7.6 buffer. The tube was placed in an icebox, which was shaken for 2 hours at 260 osc./min. Then the incubation medium was filtered through a nylon net of 200 µm mesh, to remove debris.
Sedimentation of epithelial cells was performed by centrifugation at 500xg for 10 minutes at 4°C, in a Beckman J2-21 centrifuge. The pelleted cells were resuspended in 250 ml of a solution containing 1mM Na3EDTA, adjusted to pH 8.3 with HC1 at 4°C, just before use. The cells were then disrupted, by a 28 second homogenization in a Waring Blendor. The resulting homogenate was centrifuged for 10 minutes at 4°C with a centrifugal force of 750xg in a Beckman J2-21 centrifuge with a JA-17 rotor, in order to sediment brush-borders. Pellets were combined, resuspended in 40 ml of the medium containing 1mM Na3EDTA and recentrifuged as described above. The brush-border pellet (P2) was resuspended in 33.3 ml of the same medium, 2.7 ml density gradient medium (Percoll, Pharmacia) was added by mixing. The Percoll medium was allowed to generate a density gradient during 22 minutes at 40 OOOxg in a Beckman J2-21 centrifuge, in which the membranes sedimented into bands. Nine fractions (Gl-G9) of 4 ml each, were carefully removed from the gradient with a Pasteur-pipette. The fractions were subjected to centrifugation in a Kontron TGA-65 centrifuge with a TST 60 swing-out rotor at 50 000 rpm for 45 minutes, to sediment the Percoll. The material collected on the top of the Percoll pellet was homogenized by a glass-teflon homogenizer with 5-10 up-down strokes at about 1500 rpm.
ATPase activity was determined as the amount of Pi (free phosphate) liberated from ATP by the enzyme per unit of time.
The assay medium contained 2mM ATP, 2mM MgCl2, 18.4 mM Pipes/Tris pH 7.4 and membrane protein in the presence or absence of 10 mM KC1 in a final volume of 1 ml. In some experiments, 10^-5 M of the specific Na^+,K^+-ATPase inhibitor ouabain was present. The enzyme Na^+,K^+-ATPase is responsible for the active transport of Na^+ out from the cell into the plasma as well as for the transport of K^+ into the cell from the plasma. Unless otherwise mentioned, the preparation was preincubated with ouabain on ice for 10 minutes before start of the reaction, which was initiated with ATP, mixed and incubated for suitable time at 37°C. The reaction was stopped by the addition of 1 ml icecold 12 per cent perchloric acid, containing 3.6 per cent ammoniummolybdate. […]

Structure (SMILES): COc1ccc2[nH]c([S+]([O-])Cc3ncc(C)c(OC)c3C)nc2c1 (stereo not drawn) [omeprazole]
- remaining activity at 1 µM (Initial concentration of omeprazole in the break-down mixture 1.0 µM, omeprazole decomposed at pH 5.0, 120 minutes, 37°C, membranes incubated 10 minutes at 37°C, read-out: Remaining enzyme activity % Mean value ± S.D.): 100 ± 5.9%
- remaining activity at 2.5 µM (Initial concentration of omeprazole in the break-down mixture 2.5 µM, omeprazole decomposed at pH 5.0, 120 minutes, 37°C, membranes incubated 10 minutes at 37°C, read-out: Remaining enzyme activity % Mean value ± S.D.): 72.4 ± 6%
- remaining activity at 5 µM (Initial concentration of omeprazole in the break-down mixture 5.0 µM, omeprazole decomposed at pH 5.0, 120 minutes, 37°C, membranes incubated 10 minutes at 37°C, read-out: Remaining enzyme activity % Mean value ± S.D.): 31.9 ± 6.7%
- remaining activity at 7.5 µM (Initial concentration of omeprazole in the break-down mixture 7.5 µM, omeprazole decomposed at pH 5.0, 120 minutes, 37°C, membranes incubated 10 minutes at 37°C, read-out: Remaining enzyme activity % Mean value ± S.D.): 18.6 ± 5.5%
- remaining activity at 10 µM (Initial concentration of omeprazole in the break-down mixture 10.0 µM, omeprazole decomposed at pH 5.0, 120 minutes, 37°C, membranes incubated 10 minutes at 37°C, read-out: Remaining enzyme activity % Mean value ± S.D.): 5.2 ± 3.2%
- activity of the colonic K^+-ATPase enzyme (mixture (acid decomposed omeprazole)): almost completely inhibits
